BindingDB's records for doi:10.1016/S0960-894X(01)80865-9 (1993)

Molecular target: S-adenosylmethionine decarboxylase proenzyme (Escherichia coli) (UniProt P0A7F6)
Assay: Tested for irreversible inhibitory activity against AdoMet-DC (S-adenosyl-methionine decarboxylase-) isolated from Escherichia coli

Chain of S-adenosylmethionine decarboxylase proenzyme (Escherichia coli) (P0A7F6 whole entry, looked up): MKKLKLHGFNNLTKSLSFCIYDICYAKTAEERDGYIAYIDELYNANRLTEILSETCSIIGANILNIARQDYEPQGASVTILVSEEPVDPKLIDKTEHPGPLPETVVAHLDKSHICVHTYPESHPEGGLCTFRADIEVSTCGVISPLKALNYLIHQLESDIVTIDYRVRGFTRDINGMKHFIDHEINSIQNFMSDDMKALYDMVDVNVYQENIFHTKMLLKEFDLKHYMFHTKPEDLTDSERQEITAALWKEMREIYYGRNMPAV

Q: Which Ki does the source give for `Nc1ncnc2c1ncn2[C@@H]1O[C@H](CS[C@H]2CN[C@H](C(=O)O)C2)[C@@H](O)[C@H]1O` here?
A: 960 µM

Q: How did the Ki turn out when `C[S+](C[C@H]1O[C@@H](n2cnc3c(N)ncnc32)[C@H](O)[C@@H]1O)C1CCNC1` (stereo not given in full) was run?
A: 669 µM

Q: For `Nc1ncnc2c1ncn2[C@@H]1O[C@H](CSC2CCNC2)[C@@H](O)[C@H]1O` (stereo not given in full), which Ki is on record?
A: 415 µM

Q: For `Nc1ncnc2c1ncn2[C@@H]1O[C@H](CS[C@@H]2CN[C@H](C(=O)O)C2)[C@@H](O)[C@H]1O`, which Ki is on record?
A: 478 µM

Q: `C[S+](C[C@H]1O[C@@H](n2cnc3c(N)ncnc32)[C@H](O)[C@@H]1O)C1C=C[C@H](N)C1` (stereo not given in full) was tested. Which Ki did it give?
A: 18 µM
